Results taken from publication PMC6100073, “Activation of Anthracene Endoperoxides in Leishmania and Impairment of Mitochondrial Functions” (Molecules : A Journal of Synthetic Chemistry and Natural …, 2018).
Where two headings read alike, the source gives them in different places.

Assays:
[1] = system: Leishmania donovani promastigotes (LdP); test: MTS-PMS viability assay in Leishmania donovani promastigotes; assay type: cell-based; conditions: endpoint at 48 h, 5 × 10^5 LdP/mL, read-out: IC50 (µM) Mean ± SD LdP
Experimental: Leishmania donovani (PS14) were originated from the splenic aspirate of a patient with visceral leishmaniasis. Typing of the species was done by a restriction fragment length polymorphism (RFLP) method. The parasites were cultivated in M199 medium supplemented with 20% FBS, penicillin G (50,000 IU/L), streptomycin (50 mg/L), and hemin (5 µM) at 24 °C for transformation. After 1–2 weeks, the successfully transformed parasites (Leishmania donovani promastigotes, LdP) were transferred to M199 medium supplemented with 10% FBS, penicillin G (50,000 IU/L), streptomycin (50 mg/L), and hemin (5 µM) in 12.5 cm^2 flasks (HiMedia, Mumbai, India) at 24 °C. The cells were sub-cultured every 48–72 h, 1 × 10^6 cells/mL being the inoculum.
The antileishmanial activity of anthracene endoperoxides (AcEPs) in LdP was established in promastigotes, and cell viability was measured using the modified MTS-PMS assay. Briefly, log phase promastigotes (1 × 10^5 cells/200 µL of Schneider‘s medium/well) were incubated with AcEPs (0–100 µM) for 48 h, and afterwards, parasite viability was measured. For this, MTS (2.0 mg/mL) and PMS (0.92 mg/mL) were added in a ratio of 5:1 (20 µL/well), and plates were incubated for 3 h at 37 °C; resultant absorbance was measured at 490 nm in a spectrofluorimeter (Merilyzer EIaQuant, Meril Life Sciences, Gujarat, India). The mean percent viability was calculated as follows: mean specific absorbance of treated parasites/mean specific absorbance of untreated parasites × 100. Results were expressed as IC50 values. These were enumerated by graphical extrapolation using Graph pad Prism software (version 5).

[2] = Xylenol orange assay: reaction of endoperoxides with Fe2+; conditions: 50 µM compound, 250 µM FeSO4, 125 µM xylenol orange, methanol/H2O (9:1 v/v)
Experimental: Xylenol orange (XO) (125 µM) and butylated hydroxytoluene (4 mM) were dissolved in methanol/H2O (9:1, v/v). FeSO4 (25 mM) in 2.5 M H2SO4 was prepared immediately before use and added, giving a final concentration of 250 µM FeSO4 in the samples. An aliquot of 100 µL EP solution (final concentration of 50 µM) was transferred into a disposable 1.5 mL cuvette (BRAND, Wertheim, Germany), and 1 mL of the color reagent was added. […] At these time points, the OD difference of the sample at 560 nm and 650 nm was determined using a MS1501 UV-vis diode array spectrophotometer (Shimadzu, Japan). As reference, a mixture of methanol/H2O (9:1, v/v) was used. […] The slope of the reaction rate was calculated using an extinction coefficient of the complex of 1.5 × 10^4 M^−1 cm^−1.

[3] = system: LtP; test: Uncoupling of LtP respiration in presence of oligomycin (OxoPlates); assay type: cell-based, Leishmania tarentolae; conditions: 38 µM Oligo; for uncoupling effect (recovery of O2 consumption in the presence of Oligo): 0.31–5.0 µM CCCP or 12.5–200.0 µM other compounds
Experimental: The uncoupling experiments using OxoPlates were carried out in analogy to oxygen consumption measurements of LtP. An oligomycin (Oligo) premix in aBHI was prepared leading to a final concentration of 38 µM oligomycin (Oligo). Each well of the second row was filled with 50 µL of aBHI. From the third row on, each well was filled with 50 µL of the Oligo premix and to the fourth row additional 50 µL Oligo premix was added. The respective amounts of the substances (Ac, AQ, AcEP1117, AcEP1118, AcEP1129, AcEP1130, CCCP) were added and a serial 1:2 dilution was performed. Measurements were carried out as described above. The oxygen consumption rates were normalized to the wells that contained only LtP. For each concentration measurements were done in triplicates.

Row | IC50 ([1]; Leishmania donovani, 48 h) [µM] | IC50 [1] [µM] | Structure (SMILES) | Slope (nM·min^−1) Mean ± SD of XO/Fe^3+ complex formation [2] | uncoupling effect (recovery of O2 consumption in the presence of Oligo) [3] | concentration at which regain of oxygen consumption (uncoupling) is visible ([3]; declines at higher concentrations) [µM]
1 | 4.1 ± 0.94 | – | CC12OOC(C)(c3ccccc31)c1ccccc12 [AcEP1118, 9,10-dimethyl-9,10-dihydro-9,10-epidioxidoanthracene] | 2940 ± 11 nM/min | – | –
2 | 39.5 ± 3.48 | – | CCc1ccc2c(c1)C1OOC2c2ccccc21 (stereo not drawn) [AcEP1130, 2-ethyl-9,10-dihydro-9,10-epidioxidoanthracene] | 146 ± 27 nM/min | – | –
3 | – | – | O=C1c2ccccc2C(=O)c2ccccc21 [AQ, anthraquinone, reference compound] | – | Neither Ac nor AQ displayed an uncoupling effect | –
4 | – | – | c1ccc2cc3ccccc3cc2c1 [Ac, anthracene] | – | Neither Ac nor AQ displayed an uncoupling effect | –
5 | 2.65 ± 0.34 | – | c1ccc2c(c1)C1OOC2c2ccccc21 [AcEP1117, 9,10-dihydro-9,10-epidioxidoanthracene] | 77 ± 18 nM/min | no strong uncoupling was observed except for AcEP1117 at 200 µM | –
6 | < 1 | 0.55 ± 0.11 | N=C(N)c1ccc(OCCCCCOc2ccc(C(=N)N)cc2)cc1 [Pen, pentamidine, reference compound] | – | – | –

Row | Structure (SMILES) | IC50 ([1]; Leishmania donovani, 48 h) [µM] | IC50 [1] [µM] | Slope (nM·min^−1) Mean ± SD of XO/Fe^3+ complex formation [2] | uncoupling effect (recovery of O2 consumption in the presence of Oligo) [3] | concentration at which regain of oxygen consumption (uncoupling) is visible ([3]; declines at higher concentrations) [µM]
7 | CC12OOC(c3ccccc31)c1ccccc12 [AcEP1129, 9-methyl-9,10-dihydro-9,10-epidioxidoanthracene] | 4.21 ± 0.36 | – | 200,213 ± 60,600 nM·min^−1 | a trend for uncoupling was observed at lower concentrations | 25
